For 17 compounds, IC50 results are on record in patent US8088815B2, “Spiroindolinone pyrrolidines” (Hoffman-La Roche Inc., priority 2009, dated 2012).

Chain of interaction between p53 and MDM2 proteins (Q00987 whole entry): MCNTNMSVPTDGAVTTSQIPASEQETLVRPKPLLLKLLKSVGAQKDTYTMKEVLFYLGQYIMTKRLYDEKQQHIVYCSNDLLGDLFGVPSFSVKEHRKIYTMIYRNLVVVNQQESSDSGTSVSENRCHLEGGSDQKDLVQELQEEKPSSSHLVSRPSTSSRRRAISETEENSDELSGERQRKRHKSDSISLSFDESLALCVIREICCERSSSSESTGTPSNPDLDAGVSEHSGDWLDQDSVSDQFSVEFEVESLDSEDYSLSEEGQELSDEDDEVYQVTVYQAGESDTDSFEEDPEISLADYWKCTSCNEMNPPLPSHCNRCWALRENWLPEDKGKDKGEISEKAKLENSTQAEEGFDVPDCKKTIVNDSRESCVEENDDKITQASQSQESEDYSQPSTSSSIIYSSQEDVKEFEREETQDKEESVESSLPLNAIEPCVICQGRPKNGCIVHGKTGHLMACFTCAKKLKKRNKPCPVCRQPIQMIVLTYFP

This assay concerns the target interaction between p53 and MDM2 proteins (Homo sapiens, UniProt Q00987). The assay is described as follows: HTRF assay of inhibition of the p53-MDM2 interaction (GST-MDM2 / biotinylated p53 peptide). Particulars: recombinant GST-tagged MDM2 and biotinylated p53 peptide, bsa:0.02%. In kind it is binding. A general note: In TR-FRET formats the signal depends on donor and acceptor labels being close together.
With `CCOC(=O)c1csc(NC(=O)[C@@H]2N[C@@H](CC(C)(C)C)[C@@]3(C(=O)Nc4cc(Cl)ccc43)[C@H]2c2cccc(Cl)c2F)n1` (racemic) [Example 196, rac-2-{[(2′S,3′R,4′S,5′R)-6-chloro-4′-(3-chloro-2-fluoro-phenyl)-2′-(2,2-dimethyl-propyl)-2-oxo-1,2-dihydro-spiro[indole-3,3′-pyrrolidine]-5′-carbonyl]-amino}-thiazole-4-carboxylic acid ethyl ester], the IC50 (usually the midpoint of a concentration-inhibition curve) stood at 50 nM.

Take `COc1cc(C(=O)O)c(F)cc1NC(=O)[C@@H]1N[C@@H](CC(C)(C)C)[C@@]2(C(=O)Nc3cc(Cl)ccc32)[C@H]1c1cccc(Cl)c1F` [Example 221, chiral 4-{[(2′S,3′R,4′S,5′R)-6-chloro-4′-(3-chloro-2-fluoro-phenyl)-2′-(2,2-dimethyl-propyl)-2-oxo-1,2-dihydro-spiro[indole-3,3′-pyrrolidine]-5′-carbonyl]amino}-2-fluoro-5-methoxy-benzoic acid]: the IC50 came out at 5 nM.

On to `COc1cc(C(=O)O)ccc1NC(=O)[C@@H]1N[C@@H](CC(C)(C)C)[C@@]2(C(=O)Nc3cc(Cl)ccc32)[C@H]1c1cccc(Cl)c1` (racemic) [Example 108, rac-4-{[(2′S,3′R,4′R,5′R)-6-chloro-4′-(3-chloro-phenyl)-2′-(2,2-dimethyl-propyl)-2-oxo-1,2-dihydro-spiro[indole-3,3′-pyrrolidine]-5′-carbonyl]amino}-3-methoxy-benzoic acid], for which the IC50 came to 9 nM.

Take `CCCCOc1cc(C(=O)O)ccc1NC(=O)[C@@H]1N[C@@H](CC(C)(C)C)[C@@]2(C(=O)Nc3cc(Cl)ccc32)[C@H]1c1cccc(Cl)c1F` (racemic) [Example 151, rac-3-butoxy-4-{[(2′S,3′R,4′S,5′R)-6-chloro-4′-(3-chloro-2-fluoro-phenyl)-2′-(2,2-dimethyl-propyl)-2-oxo-1,2-dihydro-spiro[indole-3,3′-pyrrolidine]-5′-carbonyl]amino}-benzoic acid]: the IC50 was found to be 13 nM.

`CCOC(=O)Cc1ccc(NC(=O)[C@@H]2N[C@@H](CC(C)(C)C)[C@@]3(C(=O)Nc4cc(Cl)ccc43)[C@H]2c2cccc(Cl)c2F)cc1` (racemic) [Example 219, rac-(4-{[(2′S,3′R,4′S,5′R)-6-chloro-4′-(3-chloro-2-fluoro-phenyl)-2′-(2,2-dimethyl-propyl)-2-oxo-1,2-dihydro-spiro[indole-3,3′-pyrrolidine]-5′-carbonyl]amino}-phenyl)-acetic acid ethyl ester]: the IC50 stood at 13 nM.

Turning to `COc1cc(S(=O)(=O)N2CCOCC2)ccc1NC(=O)[C@@H]1N[C@@H](CC(C)(C)C)[C@@]2(C(=O)Nc3cc(Cl)ccc32)[C@H]1c1cccc(Cl)c1F` [Example 154, chiral (2′S,3′R,4′S,5′R)-6-chloro-4′-(3-chloro-2-fluoro-phenyl)-2′-(2,2-dimethyl-propyl)-2-oxo-1,2-dihydro-spiro[indole-3,3′-pyrrolidine]-5′-carboxylic acid [2-methoxy-4-(morpholine-4-sulfonyl)-phenyl]-amide], the IC50 came out at 4 nM.

Consider `CC(C)(C)C[C@@H]1N[C@@H](C(=O)Nc2ccc(CCC(N)=O)cc2)[C@H](c2cccc(Cl)c2F)[C@]12C(=O)Nc1cc(Cl)ccc12` (racemic) [Example 211, rac-(2′S,3′R,4′S,5′R)-6-chloro-4′-(3-chloro-2-fluoro-phenyl)-2′-(2,2-dimethyl-propyl)-2-oxo-1,2-dihydro-spiro[indole-3,3′-pyrrolidine]-5′-carboxylic acid [4-(2-carbamoyl-ethyl)-phenyl]-amide], for which the IC50 is 15 nM.

Take `Cc1ccc(NC(=O)[C@@H]2N[C@@H](CC(C)(C)C)[C@@]3(C(=O)Nc4cc(Cl)ccc43)[C@H]2c2cccc(Cl)c2F)cc1` (racemic) [Example 36, rac-(2′S,3′R,4′S,5′R)-6-chloro-4′-(3-chloro-2-fluoro-phenyl)-2′-(2,2-dimethyl-propyl)-2-oxo-1,2-dihydro-spiro[indole-3,3′-pyrrolidine]-5′-carboxylic acid p-tolylamide]: the IC50 worked out at 18 nM.

For the compound `COC(=O)c1ccc(NC(=O)[C@@H]2N[C@@H](CC(C)(C)C)[C@@]3(C(=O)Nc4cc(Cl)ccc43)[C@H]2c2cccc(Cl)c2F)c(OC)c1` (racemic) [Example 109, rac-4-{[(2′S,3′R,4′S,5′R)-6-chloro-4′-(3-chloro-2-fluoro-phenyl)-2′-(2,2-dimethyl-propyl)-2-oxo-1,2-dihydro-spiro[indole-3,3′-pyrrolidine]-5′-carbonyl]amino}-3-methoxy-benzoic acid methyl ester], the IC50 is 11 nM.

For `COC(=O)c1cc2cc(NC(=O)[C@@H]3N[C@@H](CC(C)(C)C)[C@@]4(C(=O)Nc5cc(Cl)ccc54)[C@H]3c3cccc(Cl)c3F)ccc2s1` (racemic) [Example 212, rac-5-{[(2′S,3′R,4′S,5′R)-6-chloro-4′-(3-chloro-2-fluoro-phenyl)-2′-(2,2-dimethyl-propyl)-2-oxo-1,2-dihydro-spiro[indole-3,3′-pyrrolidine]-5′-carbonyl]amino}-benzo[b]thiophene-2-carboxylic acid methyl ester], the IC50 worked out at 18 nM.

Turning to `CC(C)(C)C[C@@H]1N[C@@H](C(=O)Nc2ccc(C(N)=O)cc2)[C@H](c2cccc(Cl)c2F)[C@]12C(=O)Nc1cc(Cl)ccc12` (racemic) [Example 8, rac-(2′S,3′R,4′S,5′R)-6-chloro-4′-(3-chloro-2-fluoro-phenyl)-2′-(2,2-dimethyl-propyl)-2-oxo-1,2-dihydro-spiro[indole-3,3′-pyrrolidine]-5′-carboxylic acid (4-carbamoyl-phenyl)-amide], the IC50 was determined as 7 nM.

As for `CC(=O)c1ccc(NC(=O)[C@@H]2N[C@@H](CC(C)(C)C)[C@@]3(C(=O)Nc4cc(Cl)ccc43)[C@H]2c2cccc(Cl)c2F)cc1` (racemic) [Example 11, rac-(2′S,3′R,4′S,5′R)-6-chloro-4′-(3-chloro-2-fluoro-phenyl)-2′-(2,2-dimethyl-propyl)-2-oxo-1,2-dihydro-spiro[indole-3,3′-pyrrolidine]-5′-carboxylic acid (4-acetyl-phenyl)-amide], the IC50 is 13 nM.

`COc1cc(C#N)ccc1NC(=O)[C@@H]1N[C@@H](CC(C)(C)C)[C@@]2(C(=O)Nc3cc(Cl)ccc32)[C@H]1c1cccc(Br)c1F` (racemic) [Example 116, rac-(2′S,3′R,4′S,5′R)-4′-(3-bromo-2-fluoro-phenyl)-6-chloro-2′-(2,2-dimethyl-propyl)-2-oxo-1,2-dihydro-spiro[indole-3,3′-pyrrolidine]-5′-carboxylic acid (4-cyano-2-methoxy-phenyl)-amide]: the IC50 worked out at 15 nM.

As for `Cn1c(NC(=O)[C@@H]2N[C@@H](CC(C)(C)C)[C@@]3(C(=O)Nc4cc(Cl)ccc43)[C@H]2c2cccc(Cl)c2F)ccc1C(=O)OC(C)(C)C` (racemic) [Example 194, rac-5-{[(2′S,3′R,4′S,5′R)-6-chloro-4′-(3-chloro-2-fluoro-phenyl)-2′-(2,2-dimethyl-propyl)-2-oxo-1,2-dihydro-spiro[indole-3,3′-pyrrolidine]-5′-carbonyl]amino}-1-methyl-1H-pyrrole-2-carboxylic acid tert-butyl ester], the IC50 is 55 nM.

On to `CCCCOc1cc(C(N)=O)ccc1NC(=O)[C@@H]1N[C@@H](CC(C)(C)C)[C@@]2(C(=O)Nc3cc(Cl)ccc32)[C@H]1c1cccc(Cl)c1F` (racemic) [Example 152, rac-(2′S,3′R,4′S,5′R)-6-chloro-4′-(3-chloro-2-fluoro-phenyl)-2′-(2,2-dimethyl-propyl)-2-oxo-1,2-dihydro-spiro[indole-3,3′-pyrrolidine]-5′-carboxylic acid (2-butoxy-4-carbamoyl-phenyl)-amide], for which the IC50 came out at 11 nM.

For the compound `CC(C)(C)C[C@@H]1N[C@@H](C(=O)Nc2ccc(C(N)=O)cc2)[C@H](c2cccc(Cl)c2F)[C@]12C(=O)Nc1cc(Br)ccc12` (racemic) [Example 94, rac-(2′S,3′R,4′S,5′R)-6-bromo-4′-(3-chloro-2-fluoro-phenyl)-2′-(2,2-dimethyl-propyl)-2-oxo-1,2-dihydro-spiro[indole-3,3′-pyrrolidine]-5′-carboxylic acid (4-carbamoyl-phenyl)-amide], the IC50 stood at 12 nM.

As to `CC(C)(C)C[C@@H]1N[C@@H](C(=O)Nc2ccc(C#N)cc2)[C@H](c2cccc(Cl)c2)[C@]12C(=O)Nc1cc(Cl)ccc12` (racemic) [Example 64, rac-(2′S,3′R,4′R,5′R)-6-chloro-4′-(3-chloro-phenyl)-2′-(2,2-dimethyl-propyl)-2-oxo-1,2-dihydro-spiro[indole-3,3′-pyrrolidine]-5′-carboxylic acid (4-cyano-phenyl)-amide], the IC50 was found to be 34 nM.
